Results from PubChem BioAssay AID248 (DTP/NCI, 2004).
Values joined by “and” are separate entries in the source; they are usually repeats but may differ in a detail not shown here. Identical values can stand only once. Toxic doses and inconclusive results are not listed.

Tested on: L1210 leukemia ip in BDF1 mice, survival T/C
Assay: NCI In Vivo Anticancer Drug Screen. Data for tumor model L1210 Leukemia (intraperitoneal) in B6D2F1 (BDF1) mice
Details: endpoint: mean survival time, higher = longer survival
Outline: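 Transplanted-tumor mice were given test agent; controls received vehicle only. Survival readings from the two groups were divided (treated over control).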

[1] = dose: 100.0 mg/kg/injection, schedule: Q01DX009 (ip), vehicle: Klucel (hydroxypropylcellulose) (HPC)
[2] = dose: 100.0 mg/kg/injection, schedule: Q04DX003 (ip), vehicle: saline
[3] = dose: 200.0 mg/kg/injection, schedule: Q01DX009 (ip), vehicle: Klucel (hydroxypropylcellulose) (HPC)
[4] = dose: 200.0 mg/kg/injection, schedule: Q04DX003 (ip), vehicle: saline
[5] = dose: 400.0 mg/kg/injection, schedule: Q01DX009 (ip), vehicle: Klucel (hydroxypropylcellulose) (HPC)
[6] = dose: 400.0 mg/kg/injection, schedule: Q04DX003 (ip), vehicle: saline
[7] = dose: 100.0 mg/kg/injection, schedule: Q04DX003 (ip), vehicle: acetone
[8] = dose: 200.0 mg/kg/injection, schedule: Q04DX003 (ip), vehicle: acetone
[9] = dose: 400.0 mg/kg/injection, schedule: Q04DX003 (ip), vehicle: acetone
[10] = dose: 6.25 mg/kg/injection, schedule: Q01DX009 (ip), vehicle: Klucel (hydroxypropylcellulose) (HPC)
[11] = dose: 12.5 mg/kg/injection, schedule: Q01DX009 (ip), vehicle: Klucel (hydroxypropylcellulose) (HPC)
[12] = dose: 100.0 mg/kg/injection, schedule: Q04DX003 (ip), vehicle: Klucel (hydroxypropylcellulose) (HPC)
[13] = dose: 200.0 mg/kg/injection, schedule: Q04DX003 (ip), vehicle: Klucel (hydroxypropylcellulose) (HPC)
[14] = dose: 100.0 mg/kg/injection, schedule: Q01DX009 (ip), vehicle: saline with Tween-80
[15] = dose: 50.0 mg/kg/injection, schedule: Q01DX009 (ip), vehicle: saline with Tween-80
[16] = dose: 100.0 mg/kg/injection, schedule: Q01DX001 (ip), vehicle: saline
[17] = dose: 200.0 mg/kg/injection, schedule: Q01DX001 (ip), vehicle: saline
[18] = dose: 400.0 mg/kg/injection, schedule: Q01DX001 (ip), vehicle: saline

In the case of CN1CCN=C1c1ccc(NC(=O)c2cccc(C(=O)Nc3ccc(C4=NCCN4C)cc3)c2)cc1, the T/C (dose: 1.88 mg/kg/injection, schedule: Q01DX Z (ip), vehicle: saline) is reported as 107 % of control, the T/C (dose: 3.75 mg/kg/injection, schedule: Q01DX Z (ip), vehicle: saline) is reported as 101 % of control and the T/C (dose: 7.5 mg/kg/injection, schedule: Q01DX Z (ip), vehicle: saline) is reported as 122 % of control. For the same compound, the T/C (dose: 30.0 mg/kg/injection, schedule: Q01DX Z (ip), vehicle: saline) was 154 % of control, the T/C (dose: 60.0 mg/kg/injection, schedule: Q01DX Z (ip), vehicle: saline) was 234 % of control and the T/C (dose: 120.0 mg/kg/injection, schedule: Q01DX Z (ip), vehicle: saline) was 171 % of control. For the same compound, the T/C (dose: 240.0 mg/kg/injection, schedule: Q01DX Z (ip), vehicle: saline) was 119 % of control and the T/C (dose: 480.0 mg/kg/injection, schedule: Q01DX Z (ip), vehicle: saline) was 106 % of control.

In the case of CNS(=O)(=O)c1cccc(C(N)=S)c1, the T/C (dose: 100.0 mg/kg/injection, schedule: Q01DX001 (ip), vehicle: saline with Tween-80) is reported as 105 % of control, the T/C (dose: 200.0 mg/kg/injection, schedule: Q01DX001 (ip), vehicle: saline with Tween-80) is reported as 100 % of control and the T/C (dose: 400.0 mg/kg/injection, schedule: Q01DX001 (ip), vehicle: saline with Tween-80) is reported as 100 % of control.

With CC(=O)OCC(OC(C)=O)C1OCOC2COCOC21 (stereo not drawn) the T/C (dose: 100.0 mg/kg/injection, schedule: Q01DX001 (ip), vehicle: Klucel (hydroxypropylcellulose) (HPC)) was 108 % of control, the T/C (dose: 200.0 mg/kg/injection, schedule: Q01DX001 (ip), vehicle: Klucel (hydroxypropylcellulose) (HPC)) was 89 % of control and the T/C (dose: 400.0 mg/kg/injection, schedule: Q01DX001 (ip), vehicle: Klucel (hydroxypropylcellulose) (HPC)) was 101 % of control.

O=C(c1ccccc1)C1CCC1 was tested, and the T/C [1] was 92 % of control, the T/C [2] was 101 % of control and the T/C [3] was 98 % of control. For the same compound, the T/C [4] was 97 % of control, the T/C [5] was 92 % of control and the T/C [6] was 97 % of control.

In the case of COc1cccc(/C2=C/CCCCCC2)c1, the T/C (dose: 50.0 mg/kg/injection, schedule: Q01DX009 (ip), vehicle: acetone) is reported as 95 % of control, the T/C (dose: 100.0 mg/kg/injection, schedule: Q01DX009 (ip), vehicle: acetone) is reported as 107 % of control and the T/C [7] is reported as 100 % of control. The T/C (dose: 200.0 mg/kg/injection, schedule: Q01DX009 (ip), vehicle: acetone) was 93 % of control, the T/C [8] was 105 % of control and the T/C [9] was 91 % of control.

In the case of NS(=O)(=O)O.[Ni], the T/C (dose: 16.0 mg/kg/injection, schedule: Q04DX003 (ip), vehicle: saline) is reported as 108 % of control, the T/C (dose: 25.0 mg/kg/injection, schedule: Q04DX003 (ip), vehicle: saline) is reported as 92 % of control and the T/C (dose: 35.0 mg/kg/injection, schedule: Q04DX003 (ip), vehicle: saline) is reported as 93 % of control. For the same compound, the T/C (dose: 50.0 mg/kg/injection, schedule: Q04DX003 (ip), vehicle: saline) was 103 % of control.

For COc1ccc(C)cc1NC(=O)OCCSc1ccc(Cl)cc1, the T/C (dose: 50.0 mg/kg/injection, schedule: Q01DX009 (ip), vehicle: gum acacia) was 97 % of control and 102 % of control, the T/C (dose: 100.0 mg/kg/injection, schedule: Q01DX001 (ip), vehicle: gum acacia) was 95 % of control and 97 % of control and the T/C (dose: 100.0 mg/kg/injection, schedule: Q04DX002 (ip), vehicle: gum acacia) was 97 % of control and 91 % of control. For the same compound, the T/C (dose: 100.0 mg/kg/injection, schedule: Q04DX003 (ip), vehicle: gum acacia) was 96 % of control and 97 % of control, the T/C (dose: 200.0 mg/kg/injection, schedule: Q01DX001 (ip), vehicle: gum acacia) was 95 % of control and 100 % of control and the T/C (dose: 200.0 mg/kg/injection, schedule: Q04DX002 (ip), vehicle: gum acacia) was 93 % of control. The T/C (dose: 200.0 mg/kg/injection, schedule: Q04DX003 (ip), vehicle: gum acacia) was 92 % of control and 96 % of control, the T/C (dose: 400.0 mg/kg/injection, schedule: Q01DX001 (ip), vehicle: gum acacia) was 94 % of control and 97 % of control and the T/C (dose: 400.0 mg/kg/injection, schedule: Q01DX009 (ip), vehicle: gum acacia) was 88 % of control and 90 % of control. The T/C (dose: 400.0 mg/kg/injection, schedule: Q04DX002 (ip), vehicle: gum acacia) was 98 % of control and 90 % of control and the T/C (dose: 400.0 mg/kg/injection, schedule: Q04DX003 (ip), vehicle: gum acacia) was 100 % of control and 101 % of control.

With C/C=C1/CN2CCC1CC2C(O)c1ccnc2ccc(O)cc12 (stereo not drawn) the T/C (dose: 75.0 mg/kg/injection, schedule: Q01DX001 (ip), vehicle: saline) was 101 % of control.

For N#CC12C(=N)CCC1C1C=CC2C1 (stereo not drawn), the T/C [10] was 100 % of control, the T/C [11] was 101 % of control and the T/C [12] was 89 % of control. The T/C [13] was 93 % of control.

In the case of O=[N+]([O-])c1ccc(CCCl)cc1, the T/C [7] is reported as 102 % of control, the T/C [8] is reported as 104 % of control and the T/C [9] is reported as 92 % of control.

For O=C1Nc2ccc(Br)cc2C1=Nc1ccc(Cl)cc1, the T/C (dose: 100.0 mg/kg/injection, schedule: Q04DX002 (ip), vehicle: Klucel (hydroxypropylcellulose) (HPC)) was 95 % of control, the T/C (dose: 200.0 mg/kg/injection, schedule: Q04DX002 (ip), vehicle: Klucel (hydroxypropylcellulose) (HPC)) was 92 % of control and the T/C (dose: 400.0 mg/kg/injection, schedule: Q04DX002 (ip), vehicle: Klucel (hydroxypropylcellulose) (HPC)) was 89 % of control.

CCOC(=O)N1CCC(=C(C#N)c2ccccc2)CC1 was tested, and the T/C [12] was 92 % of control and the T/C [13] was 92 % of control.

N#Cc1nc(C#N)c(C#N)nc1C#N was tested, and the T/C [10] was 105 % of control, the T/C [11] was 100 % of control and the T/C (dose: 25.0 mg/kg/injection, schedule: Q01DX009 (ip), vehicle: Klucel (hydroxypropylcellulose) (HPC)) was 94 % of control. The T/C (dose: 50.0 mg/kg/injection, schedule: Q01DX009 (ip), vehicle: Klucel (hydroxypropylcellulose) (HPC)) was 97 % of control.

With CCOC(=O)c1ccc(NC(=O)Nc2nccs2)cc1 the T/C (dose: 88.0 mg/kg/injection, schedule: Q01DX009 (ip), vehicle: saline with Tween-80) was 113 % of control, the T/C [14] was 123 % of control and the T/C (dose: 132.0 mg/kg/injection, schedule: Q01DX009 (ip), vehicle: saline with Tween-80) was 109 % of control. The T/C (dose: 200.0 mg/kg/injection, schedule: Q01DX009 (ip), vehicle: saline with Tween-80) was 122 % of control and the T/C (dose: 300.0 mg/kg/injection, schedule: Q01DX009 (ip), vehicle: saline with Tween-80) was 124 % of control.

For CN(C)C(=O)C(c1ccccc1)[P+](C)(c1ccccc1)c1ccccc1 (stereo not drawn), the T/C (dose: 75.0 mg/kg/injection, schedule: Q01DX001 (ip), vehicle: other) was 95 % of control.

CCOC(=O)c1ccc(N(CC(O)CN)S(=O)(=O)c2ccc(C)cc2)cc1 (stereo not drawn) was tested, and the T/C (dose: 25.0 mg/kg/injection, schedule: Q01DX009 (ip), vehicle: saline with Tween-80) was 100 % of control and the T/C [15] was 95 % of control.

With CC/C(=C(\CC)c1ccc(OCCOS(C)(=O)=O)cc1)c1ccc(OCCOS(C)(=O)=O)cc1 the T/C (dose: 12.5 mg/kg/injection, schedule: Q04DX002 (ip), vehicle: saline) was 97 % of control, the T/C (dose: 25.0 mg/kg/injection, schedule: Q04DX002 (ip), vehicle: saline) was 101 % of control and the T/C (dose: 50.0 mg/kg/injection, schedule: Q04DX002 (ip), vehicle: saline) was 94 % of control.

For O=C(O)c1c(Br)c(Br)c(Br)c(Br)c1C(=O)Nc1cc([N+](=O)[O-])ccc1O, the T/C [1] was 106 % of control, the T/C [3] was 122 % of control and the T/C [5] was 101 % of control.

With O=C(NC1CCCCC1)Oc1cccc(NC(=S)Nc2ccccc2)c1 the T/C [1] was 100 % of control, the T/C [3] was 97 % of control and the T/C [5] was 92 % of control.

In the case of CC(C)c1ccccc(=O)c1O.CC(C)c1ccccc(=O)c1O.[Cu], the T/C (dose: 200.0 mg/kg/injection, schedule: Q04DX003 (ip), vehicle: saline with Tween-80) is reported as 91 % of control.

In the case of CC12CCC(O)C(C)(C)C1=C(O)C(=O)C1=C2C(=O)CC2(C)C(=O)CCC12C (stereo not drawn), the T/C [2] is reported as 93 % of control, the T/C [4] is reported as 93 % of control and the T/C [6] is reported as 98 % of control.

With O=C(NCc1cnccn1)Oc1ccc([N+](=O)[O-])cc1 the T/C [15] was 93 % of control, the T/C [14] was 103 % of control and the T/C (dose: 400.0 mg/kg/injection, schedule: Q01DX009 (ip), vehicle: saline with Tween-80) was 98 % of control.

In the case of CN(C)c1nc(N)nc2c1nc(Cl)n2C1OC(CO)C(O)C1O (stereo not drawn), the T/C [16] is reported as 97 % of control, the T/C [17] is reported as 94 % of control and the T/C [18] is reported as 105 % of control.

With Nc1ccc(CCc2ccc(S(=O)(=O)F)cc2)cc1 the T/C [16] was 108 % of control, the T/C [17] was 103 % of control and the T/C [18] was 102 % of control.
